{
  "source": "patent US9309247B2",
  "about": "“2-substituted imidazo[4,5-D]phenanthroline derivatives and their use in the treatment of cancer” (Aptose Biosciences Inc., priority 2013, dated 2016)",
  "key": {"[1]": {"test_system": "human renal cancer cells ACHN", "experiment": "XTT cell proliferation assay, ACHN", "type": "cell-based", "details": "5 days incubation, read-out: Antiproliferative activity, Kidney ACHN", "experimental": "(§1) Exemplary compounds 1-8 were tested for anti-cancer activity in vitro using human renal cancer cells (ACHN and CAK-1), human pancreatic cells (BXPC3 and SU-86-86), human prostate cancer cell (DU14), human colon carcinoma cells (HT-29 and KM-12), leukemia cells (HL60), brain cancer/tumour cells (SK-A-AS, U87-MG), and human non-small cell lung cancer cells (H460). Compounds 1-8 are the specific embodiments of Formula (I) and Formula (IV) as described above in this application.\n(§2) The cells were maintained as a monolayer in a growth medium; McCoy's 5A modified medium (Sigma, St. Louis, Mo.), supplemented with 2 mM L-glutamine (Gibco, Grand Island, N.Y.), 10% fetal bovine serum (FBS) (Multicell, WISENT Inc. St-Bruno, QC), antibiotic-antimycotic (Multicell), at 37° C. in a 5% CO2-humidified incubator. Cells were transferred onto 150 mm tissue culture plates and grown until sub-confluency (70-80%) prior to their use. The in vitro antiproliferative activity of compounds was evaluated by incubating the cells with varying concentrations of exemplary compounds as shown in Table 1 for 5 days. The efficacy of these compounds in this cell proliferation assay was measured based in the ability of live cells to reduce the tetrazolium salt XTT to orange colored compounds of formazan (XTT cell proliferation kit IT, Roche Applied Science, Montreal, QC)."}, "[2]": {"test_system": "non-small cell lung cancer cells EKVX", "experiment": "XTT cell proliferation assay, EKVX", "type": "cell-based, human", "details": "5 days incubation, read-out: Antiproliferative activity, NSCLC EKVX", "experimental": "[The procedure below names another cell line; the source lists this cell line under the same test.] as §1, §2"}, "[3]": {"test_system": "human colon carcinoma cells HT-29", "experiment": "XTT cell proliferation assay, HT-29", "type": "cell-based", "details": "5 days incubation, read-out: Antiproliferative activity, Colon HT-29", "experimental": "as §1, §2"}, "[4]": {"test_system": "WEHI 231 (mouse, B-cell lymphoma)", "experiment": "Cell growth inhibition assay, WEHI231", "type": "cell-based", "details": "five days of incubation, XTT; read-out: IC50 WEHI231 (ms)", "experimental": "(§3) In this study, compounds 1-8 were screened in vitro against a panel of four mouse lymphoma cell lines and two human lymphoma cell line for cell growth inhibition activity. Following treatment, half maximal inhibitory concentrations (IC50) were determined with the objective of selecting the most efficacious compounds for evaluation of in vitro absorption, distribution, metabolism, and excretion (ADME) screening.\n(§4) Similarly, human Burkitt's lymphoma Ramos cells (ATCC CRL-1596) were grown in suspension in Roswell Park Memorial Institute (RPMI) 1640 medium supplemented with 10% fetal bovine serum (FBS), 10 mM HEPES KOH pH 7.4, and 2 mM sodium pyruvate. Mouse P388D1 (ATCC CCL-46) and WR19L (ATCC TIB-52) cells were grown in suspension in Dulbecco's Modified Eagle Medium (DMEM) with 10% fetal bovine serum (FBS), 10 mM HEPES, and 2 mM sodium pyruvate. Mouse WEHI231 (ATCC CRL-1702) and EL4 (ATCC TIB-39) cells were grown in suspension in DMEM with 10% fetal bovine serum (FBS), 10 mM HEPES KOH pH 7.4, 2 mM sodium pyruvate, and 0.05 mM β-mercaptoethanol. All cells were maintained at 37° C. in an atmosphere of 5% CO2 in air. Logarithmically growing cells were routinely sub-cultured twice weekly. Briefly, cells were collected by centrifugation, resuspended in pre-warmed media, and diluted 1:10 into a 75 cm^2 flask.\n(§5) Cells were subcultured and 4×10^3 cells (in 50 μL) were transferred to each well in a Falcon 96-well tissue culture plate. Exemplary compounds were dissolved in pure dimethyl sulphoxide (DMSO) at a concentration of 10 mM. From this 10 mM stock solution, 12 successive serial dilutions were made in DMSO (2.5 fold dilutions), ranging from 0.52 μM to 10 mM. Using these stock dilutions, 5 μL of each were added to 500 μL of media, and 50 μL of this was added to the cells. The final concentrations being tested ranged from 0.0026 μM to 50 μM. Each concentration was tested in triplicate, and DMSO and untreated cells were also included as controls. After five days of incubation with the compounds, cell viability was determined using the XTT cell proliferation kit (Roche, Cat. No. 11 465 015 001). Following the XTT protocol, 4.5-24 hours after addition of the reagent, the plates were read in a μQuant 96-well plate spectrophotometer (Biotek Instruments Inc.) and the results analyzed to determine the IC50."}, "[5]": {"test_system": "non-small cell lung cancer cells H226", "experiment": "XTT cell proliferation assay, H226", "type": "cell-based, human", "details": "5 days incubation, read-out: Antiproliferative activity, NSCLC H226", "experimental": "[The procedure below names another cell line; the source lists this cell line under the same test.] as §1, §2"}, "[6]": {"test_system": "human non-small cell lung cancer cells H460", "experiment": "XTT cell proliferation assay, H460", "type": "cell-based", "details": "5 days incubation, read-out: Antiproliferative activity, NSCLC H460", "experimental": "as §1, §2"}, "[7]": {"test_system": "brain cancer/tumour cells SK-N-AS", "experiment": "XTT cell proliferation assay, SK-N-AS", "type": "cell-based, human", "details": "5 days incubation, read-out: Antiproliferative activity, Brain SK-N-AS", "experimental": "as §1, §2"}, "[8]": {"test_system": "renal cell carcinoma (ACHN)", "experiment": "Renal cell carcinoma (ACHN) xenograft model", "type": "in vivo, CD-1 female nude mice", "details": "vs vehicle-treated control, FIG. 4", "experimental": "(§6) The ability of compound 1 to inhibit colon tumour growth in vivo was tested as follows. CD-1 female nude mice (7 mice per treatment group, 6-7 weeks) were injected […] with human colon adenocarcinoma cells HT-29 cells (3×10^6 cells in 0.1 ml PBS). Treatment of the mice with vehicle or 50 mg/kg/d of […] was initiated 5 days post-inoculation (size of tumours=20-40 mm^3) for 7-day cycles of five days followed by a 2 day break for 5 weeks. The size of the tumours was measured over the course of the experiment using calipers, and the weight of the tumours was measured after the animals were sacrificed.\n(§7) The ability of compound 1 to inhibit renal cell carcinoma growth (see FIG. 4), to inhibit pancreatic carcinoma growth (FIG. 5), to inhibit large-cell lung carcinoma cell growth (FIG. 6), and to inhibit Glioblastoma cell growth (FIG. 7) was also tested following the general procedure as discussed above."}, "[9]": {"test_system": "non-small cell lung cancer cells HOP-62", "experiment": "XTT cell proliferation assay, HOP-62", "type": "cell-based, human", "details": "5 days incubation, read-out: Antiproliferative activity, NSCLC HOP-62", "experimental": "[The procedure below names another cell line; the source lists this cell line under the same test.] as §1, §2"}, "Glioblastoma (U87-MG)": {"test_system": "Glioblastoma (U87-MG)", "experiment": "Glioblastoma (U87-MG) xenograft model", "type": "in vivo, CD-1 female nude mice", "details": "vs vehicle-treated control, FIG. 7", "experimental": "as §6, §7"}, "[10]": {"test_system": "human Burkitt's lymphoma Ramos cells", "experiment": "Cell growth inhibition assay, Ramos", "type": "cell-based", "details": "five days of incubation, XTT; read-out: IC50 Ramos (hs)", "experimental": "as §3, §4, §5"}, "[11]": {"test_system": "human pancreatic cells BXPC3", "experiment": "XTT cell proliferation assay, BXPC3", "type": "cell-based", "details": "5 days incubation, read-out: Antiproliferative activity, Pancreas BXPC3", "experimental": "as §1, §2"}},
  "data": [
    {"smiles": "FC1(F)Oc2ccc(-c3nc4c5cccnc5c5ncccc5c4[nH]3)cc2O1", "note": "[Compound 1]", "values": [
      {"measurement": "IC50", "setting": "[1]", "value": 170, "unit": "nM"},
      {"measurement": "IC50", "setting": "[2]", "value": 220, "unit": "nM"},
      {"measurement": "IC50", "setting": "[3]", "value": 350, "unit": "nM"},
      {"measurement": "IC50", "setting": "[4]", "value": 5.2, "unit": "nM"},
      {"measurement": "IC50", "setting": "[5]", "value": 410, "unit": "nM"},
      {"measurement": "IC50", "setting": "[6]", "value": 160, "unit": "nM"},
      {"measurement": "IC50", "setting": "[7]", "value": 210, "unit": "nM"},
      {"measurement": "inhibition of tumour growth, as measured by tumour size", "setting": "[8]", "value": "able to inhibit tumour growth"},
      {"measurement": "IC50", "setting": "[9]", "value": 210, "unit": "nM"},
      {"measurement": "inhibition of tumour growth, as measured by tumour size", "setting": "Glioblastoma (U87-MG)", "value": "able to inhibit tumour growth"},
      {"measurement": "IC50", "setting": "[10]", "value": 163, "unit": "nM"},
      {"measurement": "IC50", "setting": "[11]", "value": 180, "unit": "nM"}
    ]}
  ]
}
